In article PMC9789325, “Inhibition kinetics, molecular docking, and stability studies of the effect of papain-generated peptides from palm kernel cake proteins on angiotensin-converting enzyme (ACE)” (Food Chemistry: Molecular Sciences, 2022):
Entries after “also recorded” stand apart in the source; their conditions may differ. Like-named read-outs stand apart in the source and are kept apart here. Residues, ends and D or L forms follow the SMILES beside them. No end group written: not given here.

Columns and labels:
ACE [1] = settings: literature peptides, read-out: Kiu, cited from earlier work
ACE [2] = target: T1, ACE (Oryctolagus cuniculus, UniProt P12822); assay: Kinetics study of ACE inhibition (Lineweaver-Burk / Michaelis-Menten, HHL 15 to 4000 µM); type: biochemical, rabbit; settings: from plot of 1/Vmax against inhibitor concentration; read-out: Kiu (enzyme-inhibitor dissociation constant)
T1 construct: the angiotensin-I-converting enzyme from rabbit lung (2 units/mg protein); purchased Sigma Chemical Co. (St. Louis, MO, USA); host or cells: rabbit lung (tissue-derived)
T1 sequence (P12822 34-1310): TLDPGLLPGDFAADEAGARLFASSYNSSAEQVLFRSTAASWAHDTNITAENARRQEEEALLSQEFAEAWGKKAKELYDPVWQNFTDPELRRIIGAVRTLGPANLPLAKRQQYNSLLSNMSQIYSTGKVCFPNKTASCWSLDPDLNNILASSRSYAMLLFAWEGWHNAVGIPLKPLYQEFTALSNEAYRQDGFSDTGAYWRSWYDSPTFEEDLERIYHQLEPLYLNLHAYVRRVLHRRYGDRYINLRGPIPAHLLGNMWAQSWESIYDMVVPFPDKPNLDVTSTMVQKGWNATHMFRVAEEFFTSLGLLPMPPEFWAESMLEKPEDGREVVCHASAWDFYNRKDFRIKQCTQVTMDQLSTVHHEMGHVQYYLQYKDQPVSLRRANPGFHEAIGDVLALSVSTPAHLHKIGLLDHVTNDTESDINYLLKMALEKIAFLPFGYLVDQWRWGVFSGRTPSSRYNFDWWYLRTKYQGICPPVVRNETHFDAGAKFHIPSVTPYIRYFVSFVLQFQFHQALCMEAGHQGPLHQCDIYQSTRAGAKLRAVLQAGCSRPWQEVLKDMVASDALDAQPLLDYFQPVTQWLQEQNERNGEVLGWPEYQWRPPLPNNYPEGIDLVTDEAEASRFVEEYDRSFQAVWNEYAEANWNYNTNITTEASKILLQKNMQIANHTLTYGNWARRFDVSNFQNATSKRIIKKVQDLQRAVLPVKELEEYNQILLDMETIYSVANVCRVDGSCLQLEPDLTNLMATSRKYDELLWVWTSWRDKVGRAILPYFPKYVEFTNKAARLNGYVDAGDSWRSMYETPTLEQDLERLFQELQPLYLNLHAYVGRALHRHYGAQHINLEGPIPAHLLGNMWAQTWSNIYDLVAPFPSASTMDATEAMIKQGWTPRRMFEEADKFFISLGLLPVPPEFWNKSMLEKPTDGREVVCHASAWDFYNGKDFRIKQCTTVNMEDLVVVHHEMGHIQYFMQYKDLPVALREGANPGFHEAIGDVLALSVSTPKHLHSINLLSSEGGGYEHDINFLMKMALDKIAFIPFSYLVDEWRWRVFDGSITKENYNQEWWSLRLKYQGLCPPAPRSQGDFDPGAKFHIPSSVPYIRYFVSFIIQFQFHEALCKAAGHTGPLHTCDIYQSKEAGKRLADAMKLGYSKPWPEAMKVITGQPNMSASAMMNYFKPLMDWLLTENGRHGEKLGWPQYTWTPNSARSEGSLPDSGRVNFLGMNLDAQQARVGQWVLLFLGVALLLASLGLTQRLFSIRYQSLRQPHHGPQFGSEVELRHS
Experimental: To determine the mode of enzyme inhibition, Lineweaver-Burk plots of 1/v versus 1/[S] were used. ACE inhibition was determined in the presence of five concentrations of HHL from 15 to 4000 µM and four concentrations of peptides, as shown in Table 1.
Enzyme activity was expressed as nmol hippuric acid produced per min of enzymatic reaction. Kiu was calculated from the plot of 1/Vmax against inhibitor concentration at the intercept on the inhibitor concentration axis ([Cornish-Bowden, 2013]). Vmax and Km were calculated using GRAPHPAD PRISM 5 (GraphPad, Software Inc., San Diego, CA). Michaelis-Menten and Lineweaver-Burk plots were also created using the same software.

[3] = target: T2, angiotensin-I-converting enzyme from rabbit lung (Oryctolagus cuniculus, UniProt P12822); assay: ACE inhibitory activity evaluation (HHL substrate, hippuric acid read at 410 nm); type: biochemical; settings: for ACE inhibitory activity (%): Table 5; for ACE-inhibitory capacity (%) With pre-incubation: with pre-incubation with ACE (3 h); for ACE-inhibitory capacity (%) Without pre-incubation: without pre-incubation with ACE
T2 construct: the angiotensin-I-converting enzyme from rabbit lung (2 units/mg protein); purchased Sigma Chemical Co. (St. Louis, MO, USA); host or cells: rabbit lung (tissue-derived)
T2 sequence (P12822 34-1310): T1 sequence (P12822 34-1310)
Experimental: ACE inhibitory potency of peptides was determined following the method described by [Forghani et al. (2016)]. […] The mixture was incubated with Hippuryl-histidyl-leucine (HHL) solution (50 μL) containing 0.1 M borate buffer pH 8.3 and 0.3 M NaCl at 37 °C for 60 min. To terminate the enzymatic reaction, 75 μL of 1 M HCl was added to the mixture. Subsequently 150 μL of pyridine were layered followed by addition of 75 μL of benzenesulfonyl chloride, and the mixture was vortexed for 1 min before being cooled on ice. The absorbance was recorded at 410 nm using a micro plate reader (Labomed, model UVD-2950, USA Power Wave X 340, Biotek Instruments. Inc.,Winooski, VT, USA). The standard curve of hippuric acid (HA) was constructed by plotting absorbance versus _mol of HA produced in 1 mL of reaction volume.

ACE [4] = target: T1, ACE; assay: Effect of ACE on papain-generated peptides: hydrolysis of peptides by ACE followed by RP-HPLC; type: in vitro ADME, rabbit; settings: for degradation of the peptide by ACE (in words): after up to 3 h pre-incubation with ACE; for Peaks: number of RP-HPLC peaks; for metabolised at 1 h / metabolised at 2 h / metabolised at 3 h / metabolised at 0.5 h: rabbit, isolated ACE (angiotensin-converting enzyme) solution, read-out: Cleavage (%); for percentage of peptide cleavage by ACE: over the whole incubation period (0.5 to 3 h)
Experimental: The effect of ACE on papain-generated peptides was analyzed following the method of [Yang et al. (2003)] with some modifications. Briefly, 225 µL of the peptide solution of YGIKVGYAIP,
GGIF, GIFE at concentrations of 2, 4, and 4 mM were separately incubated with 150 µL of ACE (100 mU/mL) at 37 °C. Samples were withdrawn at incubation times of 0, 0.5, 1, 2, and 3 h and kept on ice prior to analysis by HPLC. A 20-µl sample was loaded onto a Hypersil GOLD C18 column (4.6×250 mm) attached to a Shimadzu (Kyoto, Japan) LC 20AT apparatus. The column was conditioned with eluent A (0.1 % TFA in DI) and eluted with 100 % eluent A from 0 to 10 min. The peptides were eluted with eluent B (0.1 % TFA in CH3CN) with a gradient elution of 0–100 % for 10–50 min. The absorbance was read at 215 nm.
To evaluate the possible degrading effects of ACE on the bioactive peptides generated from palm kernel cake proteins prior to examining their inhibitory activity, the peptides were preincubated with ACE in a water bath shaker at 37 °C for 0.5 h, 1 h, 2 h and 3 h, and the resulting peptides were analyzed using RP-HPLC.

[5] = incubation with ACE (100 mU/mL) 37 °C, 0.5 h, peptide 2 mM (YGIKVGYAIP), 4 mM (GGIF, GIFE)

| Compound | Ki (ACE [2]) | IC50 [3] | ACE inhibitory activity (%) [3] | ACE-inhibitory capacity (%) With pre-incubation [3] | ACE-inhibitory capacity (%) Without pre-incubation [3] | Peaks (ACE [4]; incubation with ACE 37 °C, 1 h) | Cleavage (%) (ACE [4]; incubation with ACE 37 °C, 2 h) | Peaks (ACE [4]; incubation with ACE 37 °C, 2 h) | Cleavage (%) (ACE [4]; [5]) | Peaks (ACE [4]; [5]) | metabolised at 1 h (ACE [4]; incubation with ACE 37 °C, 1 h) | metabolised at 2 h (ACE [4]; incubation with ACE 37 °C, 2 h) | metabolised at 3 h (ACE [4]; incubation with ACE 37 °C, 3 h) | metabolised at 0.5 h (ACE [4]; [5]) | Peaks (ACE [4]; incubation with ACE 37 °C, 3 h) | percentage of peptide cleavage by ACE (ACE [4]) | Ki (ACE [1]; ref Girgih, He & Aluko (2014)) | degradation of the peptide by ACE (in words) (ACE [4]) | Ki (ACE [1]; ref He, Aluko & Ju (2014)) |
| --- | --- | --- | --- | --- | --- | --- | --- | --- | --- | --- | --- | --- | --- | --- | --- | --- | --- | --- | --- |
| WVYY | – | – | – | – | – | – | – | – | – | – | – | – | – | – | – | – | 60 µM | – | – |
| RALP | – | – | – | – | – | – | – | – | – | – | – | – | – | – | – | – | – | – | 104 µM |
| WYT | – | – | – | – | – | – | – | – | – | – | – | – | – | – | – | – | 1830 µM | – | – |

Second part, led by results:

| Ki (ACE [2]) | IC50 [3] | ACE inhibitory activity (%) [3] | ACE-inhibitory capacity (%) With pre-incubation [3] | ACE-inhibitory capacity (%) Without pre-incubation [3] | Peaks (ACE [4]; incubation with ACE 37 °C, 1 h) | Cleavage (%) (ACE [4]; incubation with ACE 37 °C, 2 h) | Peaks (ACE [4]; incubation with ACE 37 °C, 2 h) | Cleavage (%) (ACE [4]; [5]) | Peaks (ACE [4]; [5]) | metabolised at 1 h (ACE [4]; incubation with ACE 37 °C, 1 h) | metabolised at 2 h (ACE [4]; incubation with ACE 37 °C, 2 h) | metabolised at 3 h (ACE [4]; incubation with ACE 37 °C, 3 h) | metabolised at 0.5 h (ACE [4]; [5]) | Peaks (ACE [4]; incubation with ACE 37 °C, 3 h) | percentage of peptide cleavage by ACE (ACE [4]) | Compound | Ki (ACE [1]; ref Girgih, He & Aluko (2014)) | degradation of the peptide by ACE (in words) (ACE [4]) | Ki (ACE [1]; ref He, Aluko & Ju (2014)) |
| --- | --- | --- | --- | --- | --- | --- | --- | --- | --- | --- | --- | --- | --- | --- | --- | --- | --- | --- | --- |
| 54 µM | 1 µM | 100 ± 3.00% | 93 ± 2.40% | 100 ± 3.00% | 5 | 95% | 5 | 70% | 5 | 84 ± 1.6% | 95 ± 3.2% | 98 ± 3.1% | 70 ± 2.2% | – | – | YGIKVGYAIP [YGIKVGYAIP] | – | degraded; also recorded: not resistant to ACE | – |
| 18000 µM | – | 40 ± 1.00% | 43 ± 1.80% | 40 ± 1.00% | 1 | – | 1 | – | 1 | 0% | 0% | 0% | 0% | 1 | ~0% | CC[C@H](C)[C@H](NC(=O)CN)C(=O)N[C@@H](Cc1ccccc1)C(=O)N[C@@H](CCC(=O)O)C(=O)O [GIFE] (H-GIFE-OH; N-terminus and C-terminus assumed) | – | resistant; also recorded: resistant and were not degraded | – |
| 1270 µM | 92 µM | 97 ± 2.17% | 87 ± 2.70% | 97 ± 2.18% | 1 | – | 1 | – | 1 | 1 ± 0.2% | 1 ± 0.4% | 2 ± 0.6% | 1 ± 0.1% | 1 | approximately 1.5% | CC[C@H](C)[C@H](NC(=O)CNC(=O)CN)C(=O)N[C@@H](Cc1ccccc1)C(=O)O [GGIF] (H-GGIF-OH; N-terminus and C-terminus assumed) | – | resistant to ACE; also recorded: resistant and were not degraded | – |
